Test results from patent US7205382B2, “Peptides, the production and use thereof for binding immunoglobulins” (Fresenius Medical Care Affina GmbH, priority 2000, dated 2007).
Bridge positions count the residues as written; N and C are the ends. Ends that are not written are not given here. cellulose = not defined here; βAla = NCCC(=O)O

Legend:
Assay type in all cases: binding
Design in all cases: key: No binding of immunoglobulin for the defined peptide variant, detection negative: 0; Binding of immunoglobulin for the defined peptide variant, detection positive: +
[1] = tested on: immunoglobulins in human plasma; assay: Cellulose-immobilized 13-mer peptide variants incubated with human plasma, anti-human IgG-AP detection; settings: human plasma as sample, diluted 1:10,000 in blocking buffer, 3 h room temperature
Outline: (§1)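 Peptides on cellulose via a (βA)(βA) spacer were blocked in T-TBS (pH 8.0) with 5% saccharose and 4% BSA, then exposed for 3 h at room temperature to IgG-Fc (1 μg/ml), serum diluted 1:10,000, or blocking buffer alone. Bound IgG was detected with AP-anti-human IgG (1.2 μg/ml) and NBT/BCIP colour development.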

serum albumin = assay: Cellulose-immobilized 13-mer peptide variants incubated with serum albumin (negative control), anti-human IgG-AP detection; settings: blocking buffer without addition, 3 h room temperature
Outline: as §1

human IgG-Fc = assay: Cellulose-immobilized 13-mer peptide variants incubated with human IgG-Fc, anti-human IgG-AP detection; settings: IgG-Fc 1 μg/ml in blocking buffer, 3 h room temperature
Outline: as §1

Substance | Result for incubation with human plasma (immunoglobulin binding detection) [1] | Result for incubation with serum albumin (immunoglobulin binding detection) (serum albumin) | Result for incubation with human IgG-Fc (immunoglobulin binding detection) (human IgG-Fc)
08Q: cellulose-bound 13-mer variant DCAWHLGQLVWCT-(βA)(βA) (DCAWHLGQLVWCT-{βAla-βAla-cellulose}; disulfide 2-12 (inferred); reading uncertain; also: printed as DCAWHLGQLVWCT-(βA)(βA)) | + | 0 | +
08R: cellulose-bound 13-mer variant DCAWHLGRLVWCT-(βA)(βA) (DCAWHLGRLVWCT-{βAla-βAla-cellulose}; disulfide 2-12 (inferred); reading uncertain; also: printed as DCAWHLGRLVWCT-(βA)(βA)) | + | 0 | +
08S: cellulose-bound 13-mer variant DCAWHLGSLVWCT-(βA)(βA) (DCAWHLGSLVWCT-{βAla-βAla-cellulose}; disulfide 2-12 (inferred); reading uncertain; also: printed as DCAWHLGSLVWCT-(βA)(βA)) | 0 | 0 | +
08T: cellulose-bound 13-mer variant DCAWHLGTLVWCT-(βA)(βA) (DCAWHLGTLVWCT-{βAla-βAla-cellulose}; disulfide 2-12 (inferred); reading uncertain; also: printed as DCAWHLGTLVWCT-(βA)(βA)) | 0 | 0 | 0
08V: cellulose-bound 13-mer variant DCAWHLGVLVWCT-(βA)(βA) (DCAWHLGVLVWCT-{βAla-βAla-cellulose}; disulfide 2-12 (inferred); reading uncertain; also: printed as DCAWHLGVLVWCT-(βA)(βA)) | 0 | 0 | 0
08W: cellulose-bound 13-mer variant DCAWHLGWLVWCT-(βA)(βA) (DCAWHLGWLVWCT-{βAla-βAla-cellulose}; disulfide 2-12 (inferred); reading uncertain; also: printed as DCAWHLGWLVWCT-(βA)(βA)) | 0 | 0 | 0
08Y: cellulose-bound 13-mer variant DCAWHLGYLVWCT-(βA)(βA) (DCAWHLGYLVWCT-{βAla-βAla-cellulose}; disulfide 2-12 (inferred); reading uncertain; also: printed as DCAWHLGYLVWCT-(βA)(βA)) | 0 | 0 | 0
09A: cellulose-bound 13-mer variant DCAWHLGEAVWCT-(βA)(βA) (DCAWHLGEAVWCT-{βAla-βAla-cellulose}; disulfide 2-12 (inferred); reading uncertain; also: printed as DCAWHLGEAVWCT-(βA)(βA)) | 0 | 0 | 0
09C: cellulose-bound 13-mer variant DCAWHLGECVWCT-(βA)(βA) (DCAWHLGECVWCT-{βAla-βAla-cellulose}; not fully specified; printed as DCAWHLGECVWCT-(βA)(βA); cysteine pairing not given here; reading uncertain) | 0 | 0 | 0
09D: cellulose-bound 13-mer variant DCAWHLGEDVWCT-(βA)(βA) (DCAWHLGEDVWCT-{βAla-βAla-cellulose}; disulfide 2-12 (inferred); reading uncertain; also: printed as DCAWHLGEDVWCT-(βA)(βA)) | 0 | 0 | 0
09E: cellulose-bound 13-mer variant DCAWHLGEEVWCT-(βA)(βA) (DCAWHLGEEVWCT-{βAla-βAla-cellulose}; disulfide 2-12 (inferred); reading uncertain; also: printed as DCAWHLGEEVWCT-(βA)(βA)) | 0 | 0 | 0
09F: cellulose-bound 13-mer variant DCAWHLGEFVWCT-(βA)(βA) (DCAWHLGEFVWCT-{βAla-βAla-cellulose}; disulfide 2-12 (inferred); reading uncertain; also: printed as DCAWHLGEFVWCT-(βA)(βA)) | 0 | 0 | 0
09G: cellulose-bound 13-mer variant DCAWHLGEGVWCT-(βA)(βA) (DCAWHLGEGVWCT-{βAla-βAla-cellulose}; disulfide 2-12 (inferred); reading uncertain; also: printed as DCAWHLGEGVWCT-(βA)(βA)) | 0 | 0 | 0
09H: cellulose-bound 13-mer variant DCAWHLGEHVWCT-(βA)(βA) (DCAWHLGEHVWCT-{βAla-βAla-cellulose}; disulfide 2-12 (inferred); reading uncertain; also: printed as DCAWHLGEHVWCT-(βA)(βA)) | 0 | 0 | 0
09I: cellulose-bound 13-mer variant DCAWHLGEIVWCT-(βA)(βA) (DCAWHLGEIVWCT-{βAla-βAla-cellulose}; disulfide 2-12 (inferred); reading uncertain; also: printed as DCAWHLGEIVWCT-(βA)(βA)) | 0 | 0 | 0
09K: cellulose-bound 13-mer variant DCAWHLGEKVWCT-(βA)(βA) (DCAWHLGEKVWCT-{βAla-βAla-cellulose}; disulfide 2-12 (inferred); reading uncertain; also: printed as DCAWHLGEKVWCT-(βA)(βA)) | + | 0 | +
